Test results: patent publication US4442044A, “Process for preparing monoesters and diesters of N-alkyl substituted amino methyl phosphonic acid” (priority 1983, dated 1984)

What was measured:
Experiment in all cases: post-emergent herbicidal activity, greenhouse
Format in all cases: in vivo
Settings in all cases: Table I, 4 WAT
Barnyardgrass = tested on: Barnyardgrass
From the text: (§1) A good grade of top soil is placed in aluminum pans having holes in the bottom and compacted to a depth of 0.95 to 1.27 cm. from the top of the pan. A predetermined number of seeds of each of several dicotyledonous and monocotyledonous annual plant species and/or vegetative propagules for the perennial plant species were placed on the soil and pressed into the soil surface. The seeds and/or vegetative propagules are covered with soil and leveled. The pans are then placed on a sand bench in the greenhouse and watered from below as needed. After the plants reach the desired age (two to three weeks), each pan except for the control pans is removed individually to a spraying chamber and sprayed by means of an atomizer operating at a positive air pressure of approximately 1.46 kg/cm^2 absolute. The atomizer contains 6 ml. of a solution or suspension of the chemical. In that 6 ml., is an amount of a cyclohexanone emulsifying agent mixture to give a spray solution or suspension which contains about 0.4% by weight of the emulsifier. The spray solution or suspension contains a sufficient amount of the candidate chemical in order to give application rates corresponding to those set forth in the tables. The spray solution is prepared by taking an aliquot of a 1.0% by weight stock solution or suspension of the candidate chemical in an organic solvent such as acetone or tetrahydrofuran or in water. The emulsifying agent employed is a mixture comprising 35 weight percent butylamine dodecylbenzene sulfonate and 65 weight percent of a tall oil ethylene oxide condensate having about 11 moles of ethylene oxide per mole of tall oil. The pans are returned to the greenhouse and watered as before and the injury to the plants as compared to the control is observed at approximately two and four weeks as indicated in the tables under WAT and the results recorded. In some instances, the two-week observations are omitted.
(§2) The post-emergent herbicidal activity index used in Tables I and II is as follows: […]

Canada Thistle = tested on: Canada Thistle
From the text: as §1, §2

Cocklebur = tested on: Cocklebur
From the text: as §1, §2

Downy Brome = tested on: Downy Brome
From the text: as §1, §2

Johnsongrass = tested on: Johnsongrass
From the text: as §1, §2

Lambsquarters = tested on: Lambsquarters
From the text: as §1, §2

Morningglory = tested on: Morningglory
From the text: as §1, §2

Quackgrass = tested on: Quackgrass
From the text: as §1, §2

Smartweed = tested on: Smartweed
From the text: as §1, §2

Velvetleaf = tested on: Velvetleaf
From the text: as §1, §2

Yellow Nutsedge = tested on: Yellow Nutsedge
From the text: as §1, §2

## CCOC(=O)CNCP(=O)(O)OC(C)CC(=O)OCC (centres unmarked) [Example 25]
Barnyardgrass; 5.6 kg/h
  post-emergent herbicidal activity index: 1 (25-49% control)
Barnyardgrass; 11.2 kg/h
  post-emergent herbicidal activity index: 2 (50-74% control)
Canada Thistle; 5.6 kg/h
  post-emergent herbicidal activity index: 0 (0-24% control)
Canada Thistle; 11.2 kg/h
  post-emergent herbicidal activity index: 1 (25-49% control)
Cocklebur; 5.6 kg/h
  post-emergent herbicidal activity index: 0 (0-24% control)
Cocklebur; 11.2 kg/h
  post-emergent herbicidal activity index: 2 (50-74% control)
Downy Brome; 5.6 kg/h
  post-emergent herbicidal activity index: 0 (0-24% control)
Downy Brome; 11.2 kg/h
  post-emergent herbicidal activity index: 0 (0-24% control)
Johnsongrass; 5.6 kg/h
  post-emergent herbicidal activity index: 1 (25-49% control)
Johnsongrass; 11.2 kg/h
  post-emergent herbicidal activity index: 2 (50-74% control)
Lambsquarters; 5.6 kg/h
  post-emergent herbicidal activity index: 0 (0-24% control)
Lambsquarters; 11.2 kg/h
  post-emergent herbicidal activity index: 0 (0-24% control)
Morningglory; 5.6 kg/h
  post-emergent herbicidal activity index: 1 (25-49% control)
Morningglory; 11.2 kg/h
  post-emergent herbicidal activity index: 2 (50-74% control)
Quackgrass; 5.6 kg/h
  post-emergent herbicidal activity index: 0 (0-24% control)
Quackgrass; 11.2 kg/h
  post-emergent herbicidal activity index: 1 (25-49% control)
Smartweed; 5.6 kg/h
  post-emergent herbicidal activity index: 0 (0-24% control)
Smartweed; 11.2 kg/h
  post-emergent herbicidal activity index: 0 (0-24% control)
Velvetleaf; 5.6 kg/h
  post-emergent herbicidal activity index: 0 (0-24% control)
Velvetleaf; 11.2 kg/h
  post-emergent herbicidal activity index: 1 (25-49% control)
Yellow Nutsedge; 5.6 kg/h
  post-emergent herbicidal activity index: 0 (0-24% control)
Yellow Nutsedge; 11.2 kg/h
  post-emergent herbicidal activity index: 2 (50-74% control)

## CCOC(=O)CNCP(=O)(O)OCC(Cl)(Cl)Cl [Example 26, glycine, N-[[(2,2,2-trichloroethoxy)hydroxyphosphinyl]methyl]-ethyl ester]
Barnyardgrass; 11.2 kg/h
  post-emergent herbicidal activity index: 1 (25-49% control)
Barnyardgrass; 56.0 kg/h
  post-emergent herbicidal activity index: 1 (25-49% control)
Canada Thistle; 11.2 kg/h
  post-emergent herbicidal activity index: 0 (0-24% control)
Canada Thistle; 56.0 kg/h
  post-emergent herbicidal activity index: 0 (0-24% control)
Cocklebur; 11.2 kg/h
  post-emergent herbicidal activity index: 1 (25-49% control)
Cocklebur; 56.0 kg/h
  post-emergent herbicidal activity index: 1 (25-49% control)
Downy Brome; 11.2 kg/h
  post-emergent herbicidal activity index: 0 (0-24% control)
Downy Brome; 56.0 kg/h
  post-emergent herbicidal activity index: 0 (0-24% control)
Johnsongrass; 11.2 kg/h
  post-emergent herbicidal activity index: 0 (0-24% control)
Johnsongrass; 56.0 kg/h
  post-emergent herbicidal activity index: 0 (0-24% control)
Lambsquarters; 11.2 kg/h
  post-emergent herbicidal activity index: 1 (25-49% control)
Lambsquarters; 56.0 kg/h
  post-emergent herbicidal activity index: 1 (25-49% control)
Morningglory; 11.2 kg/h
  post-emergent herbicidal activity index: 0 (0-24% control)
Morningglory; 56.0 kg/h
  post-emergent herbicidal activity index: 1 (25-49% control)
Quackgrass; 11.2 kg/h
  post-emergent herbicidal activity index: 0 (0-24% control)
Quackgrass; 56.0 kg/h
  post-emergent herbicidal activity index: 0 (0-24% control)
Smartweed; 11.2 kg/h
  post-emergent herbicidal activity index: 0 (0-24% control)
Smartweed; 56.0 kg/h
  post-emergent herbicidal activity index: 1 (25-49% control)
Velvetleaf; 11.2 kg/h
  post-emergent herbicidal activity index: 0 (0-24% control)
Velvetleaf; 56.0 kg/h
  post-emergent herbicidal activity index: 0 (0-24% control)
Yellow Nutsedge; 11.2 kg/h
  post-emergent herbicidal activity index: 0 (0-24% control)
Yellow Nutsedge; 56.0 kg/h
  post-emergent herbicidal activity index: 1 (25-49% control)
